The values below come from paper PMC9785606, “Design and Synthesis of Novel Phenylahistin Derivatives Based on Co-Crystal Structures as Potent Microtubule Inhibitors for Anti-Cancer Therapy” (Marine Drugs, 2022).

One may read the half-life as how long it takes for the measured level to halve. As usually defined, the IC50 is the concentration at which inhibition is half-maximal. A low value points to greater potency in that assay. A word on the melting point: it is the temperature of the solid-liquid transition.

Data set [1] can be described thus: Plasma stability in vitro. In kind it is in vitro ADME, wistar rats. The following applies: 10 μmol/L, 37 °C, up to 120 min. On the procedure:
Compounds 15p. 15p were weighed and dissolved in DMSO to prepare a master batch with a concentration of 1 mg/mL. The plasma was obtained from wistar male rats, and stored at −20 °C for pending use. The 10 μmol/L of the sample solution to be tested was vortexed and mixed, and rapidly incubated in a 37 °C water bath shaker. The 100 μL of the incubation system was removed at 0 min, 5 min, 10 min, 20 min, 40 min, 60 min, 90 min, and 120 min of the reaction, respectively. The remaining amount of compound was detected (note: each sample was operated three times in parallel). The concentrations of the samples to be measured (15p) in rat plasma were detected by HPLC-MS/MS, and the experimental data were processed and plotted using the computer programs Microsoft Excel (Microsoft 97–2003, Redmond, Washington, DC, USA) and Origin 8.5 (OriginLab, Northampton, MA, USA).

The subject of data set [2] is microtubules in NCI-H460 cells. Kind of data set: Immunofluorescence assay of microtubules (β-tubulin/DAPI staining). Format: cell-based, human. The following applies: 2 nM, 24 h. On the procedure: To further explore the effect of phenylahistin derivatives 1 and 15p on microtubules in cancer cells, an immunofluorescence assay was performed. […] The inhibitory activities were consistent with the previously shown anti-proliferative activities.
NCI-H460 cells were seeded in 24-well plate (with coverslips plated) at the density of 5 × 10^4 cells. […] Then, cells were fixed with 4% cold paraformaldehyde at 4 °C for 15 min and then permeabilized in 0.05% Triton X-100 for 10 min. The cells were blocked in 1% BSA for 30 min. Microtubules were detected by incubation with a monoclonal anti-β-tubulin (β-tubulin antibody was obtained from Servicebio, Wuhan, China.) at 4 °C for 12 h. Subsequently, the cells were washed with PBS and incubated with a FITC-conjugated anti-mouse IgG antibody. Nuclei were stained with DAPI (G1012, Servicebio, Wuhan, China). The coverslips were visualized under fluorescence microscope (Nikon Eclipse C1, Nikon, Japan) and an image-forming system (Nikon DS-U3, Nikon, Tokyo, Japan).

Data set [3] can be described thus: Stability of liver microsomal metabolism. To be noted: 37 °C. Format: in vitro ADME, rat. As to the method:
The total volume of the incubation system is 1 mL, which contains 1 mmol/L NADPH, 0.5 mg/mL rat liver microsomes, 1 μmol/L 15p standard solution, which was supplemented with K2HPO4 buffer to 1 mL. The solution should be added to the incubation system. The incubation system was rapidly incubated in a water bath shaker at 37 °C for 5 min before adding 200 μL of 5 mmol/L NADPH. The 50 μL of the incubation system was quickly removed at 0, 5, 10, 20, 40, 60, 90, 120, 150, 210, and 270 min. The concentrations of the samples to be measured (15p) in rat liver microsomes were measured by HPLC-MS/MS. Each sample was operated on three times in parallel. The experimental data were processed and plotted using the computer programs Microsoft Excel (97–2003) and Origin 7.5 software.
(In general: Liver microsomes are vesicles of endoplasmic reticulum, rich in cytochrome P450 enzymes.)

Data set [4] deals with colon cancer HT-29 cell line. Kind of data set: MTT cytotoxicity assay, colon cancer HT-29 cell line. Format: cell-based. To be noted: Homo sapiens, 72 h, mean ± SD. As to the method: (§1) Human cancer cell lines (lung cancer NCI-H460 cell line, pancreatic cancer BxPC-3 cell line, colon cancer HT-29 cell line) were purchased from American Type Cell Culture Collection (ATCC, Manassas, VA, USA). Cells were maintained in RPMI-1640 medium supplemented with 10% (v/v) heat-inactivated fetal bovine serum, penicillin-streptomycin (100 U/mL-100 […]) at 37 °C in a humidified atmosphere (5% CO2–95% air). All tested derivatives were dissolved in 100% cell culture grade DMSO. Cells (3 × 10^3 per well) were seeded in 96-well plates for 24 h. Then, cells were treated with the tested compounds in six concentrations for 72 h. Cell viability was assessed by MTT assay. The absorbance at 490 nm was measured with a Microplate Reader (Molecular Devices, Silicon Valley, CA, USA). The data were analyzed by Origin 8.5 (OriginLab, Northampton, MA, USA).

Data set [5] deals with pancreatic cancer BxPC-3 cell line. Kind of data set: MTT cytotoxicity assay, pancreatic cancer BxPC-3 cell line. The following applies: Homo sapiens, 72 h, mean ± SD. In kind it is cell-based. As to the method: as §1
(Tetrazolium dyes change colour on reduction, which living cells bring about.)

The subject of data set [6] is human lung cancer NCI-H460 cell line. Kind of data set: MTT cytotoxicity assay, lung cancer NCI-H460 cell line. In kind it is cell-based. To be noted: Homo sapiens, NCI-H460, 72 h, mean ± SD. On the procedure:
as §1

In another data set the test system is caspase-3. Kind of data set: Western blotting of caspase-3 expression. In kind it is cell-based. As to the method: Western blot was performed as previously described with antibody caspase-3 (1:1000) (WB0177/WB0176) or GAPDH (1:3000) (WB0197/WB0196, Shanghai Wei-Ao Biotechnology Co., Shanghai, China). Densities of the Western blotting bands were quantified using ImageJ 19.0. (NIH, Bethesda, MD, USA).
A general note: Immunoblotting shows a protein as a band on a membrane.

Each structure is given as a SMILES string.

For the molecule `C=CCn1cnc(/C=c2\[nH]c(=O)/c(=C/c3cccc(C(=O)c4ccc(F)cc4)c3)[nH]c2=O)c1C(C)C` [15p], the melting point lay in the range of 200 to 202 °C. Also, the Plasma stability result in data set [1] is given as “very stable”. The “Effect on microtubule networks” value in data set [2] was “microtubule networks were damaged”. Besides, in data set [3] (NADPH), the “Clearance by liver microsomes” value is “quickly cleared by liver microsomes”. This molecule had a Total clearance (CL) at 1 μmol/L in data set [3] (Wistar, rat, rat liver microsomes, rat liver microsomes 0.5 mg/mL, 1 μmol/L) of 80.6 mL/min/kg. For the same molecule, in data set [3] (Wistar, rat, rat liver microsomes, rat liver microsomes 0.5 mg/mL, 1 μmol/L, read-out: CLint (intrinsic clearance)), the CLint scaled at 1 μmol/L was 772 mL/min/kg. Moreover, the half-life at 1 μmol/L in data set [3] (Wistar, rat liver microsomes 0.5 mg/mL, 1 μmol/L) worked out at 7.07 min. Also, half-maximal inhibition in data set [4] (IC50) was put at 0.67 ± 0.064 nM. For the same molecule, it took 0.81 ± 0.02 nM to reach half-maximal inhibition in data set [5] (IC50). For the same molecule, the IC50 in data set [6] was determined as 1.03 ± 0.18 nM. In the data set on caspase-3, the “Expression of caspase-3 vs control group and plinabulin group” value is given as “significantly higher”. For the same molecule, the “Upregulation of caspase-3” value in the data set with caspase-3 (10 nM) was “strongest upregulation of caspase-3”.
